Data taken from US20150165400A1, “CRYSTALLISATION PROCESS” (University of Bradford, priority 2012, published 2015).

Tests used:
[1] = Stability study of triclinic form recrystallised from cyclohexane, PXRD; format: physicochemical; settings: recrystallised from cyclohexane at 80° C., vacuum dried
Source text: The product obtained was vacuum dried and the crystal form was confirmed by PXRD.

[2] = In-vitro dissolution profile, USP-XXVI paddle method; format: physicochemical; settings: water, 600 ml, 75 rpm, 37° C., 20 mg artemisinin
[3] = Effect of externally added solvents on extruded triclinic form, stability by PXRD; format: physicochemical
Source text: Effect of different solvents such as acetone, ethanol, cyclohexane, methanol and water on extruded triclinic form was studied. […] FIGS. 21 to 25 show the PXRD patterns highlighting the effect of adding the different solvents to extrude. It was observed that conversion rate from triclinic to orthorhombic form was proportional to solubility of orthorhombic form in each solvent.

[4] = Pharmacokinetic study of artemisinin, plasma level by HPLC; format: in vivo, albino wistar rats; settings: rats, 100 mg artemisinin in 0.5% aqueous CMC
Experimental: A pharmacokinetic study of artemisinin was carried out. The study was performed using 36 healthy albino wistar rats with a weight ranging from 180 to 200 grams. The wistar rats were taken and divided into three groups; a control group, the orthorhombic crystal form group and the triclinic crystal form group. A sparse technique was used to collect blood samples (n=6). The animals were housed in standard metabolism cages and were subject to fasting conditions for 12 hours before dosing. The animals were allowed free movement and access to water throughout the experiment. […] At predetermined time intervals, blood samples were obtained by the retro orbital technique and collected in EDTA tubes. Plasma was obtained by centrifugation of the blood sample at 3500 revolutions per minute (rpm) for 15 minutes. A volume of 200 μl of plasma was pipetted into Eppendorf tubes and 100 μl of internal standard (artemether solution […]) and 700 μl methanol were added. […] The collected sample was then subjected to analysis by HPLC. […] The HPLC system consisted of an Agilent 1200 series, UV detector (Agilent Technologies, […], Wokingham, United Kingdom) set at 210 nm and a C18 column (250×4.6 mm). […] The plasma concentration-time profiles were plotted and Areas Under Curve (AUC) were calculated (shown in FIG. 35) using the Trapezoidal rule.

## C[C@@H]1CC[C@H]2[C@@H](C)C(=O)O[C@@H]3O[C@@]4(C)CC[C@@H]1[C@]32OO4 [artemisinin]
[1]
  stability of crystal form (transformation to orthorhombic form): transformed to orthorhombic form within a week

## C[C@@H]1CC[C@H]2[C@@H](C)C(=O)O[C@@H]3O[C@@]4(C)CC[C@@H]1[C@]32OO4 [triclinic form, artemisinin]
[2]
  dissolution rate in comparison with starting material: four times greater
[3]; 0.2 ml solvent added to 3 g extruded sample
  rank order of transformation from triclinic to orthorhombic form: acetone>methanol>ethanol>cyclohexane>water
[3]; 0.2 ml water added to 3 g extruded sample
  transformation to orthorhombic form in the sample containing water: no transformation was observed
[4]; albino Wistar, rat, plasma, po, 100 mg, plasma, read-out: average maximum concentration (Cmax)
  Cmax: 31 µg/mL
[4]; albino Wistar, rat, plasma, po, 100 mg, plasma, read-out: average time where the concentration reached a maximum (Tmax)
  Tmax: 5 h
[4]; oral
  AUC compared with the orthorhombic form: two fold increase

## C[C@@H]1CC[C@H]2[C@@H](C)C(=O)O[C@@H]3O[C@@]4(C)CC[C@@H]1[C@]32OO4 [orthorhombic form, artemisinin, reference compound]
[4]; oral, plasma
  average maximum concentration (Cmax): 16 µg/mL
  average time where the concentration reached a maximum (Tmax): 4 h
